According to patent US20120232062A1, “AZAINDAZOLES TO TREAT FLAVIVIRIDAE VIRUS INFECTION” (EIGER BIOPHARMACEUTICALS, INC., priority 2009, published 2012):
Where two headings read alike, the source gives them in different places.

What was measured:
HCV genotype 1b = experiment: HCV 1b replicon luciferase assay; type: cell-based
How it was run: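 Luminescence (Steady-Glo) served as the replication read-out after 48 h compound exposure of 1b replicon-luciferase Huh7 cells seeded at 10k/well. Dosing used 5-fold serial dilutions, 10 concentrations, top 25 μM final, 0.1% DMSO, duplicates.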

[1] = Liver microsome stability, rat; type: in vitro ADME, Sprague Dawley rat
Description: Metabolic stability assays are designed to measure the stability of a test compound in a variety of assay matrices from human and animal species. From a metabolism perspective, a drug would be relatively stable, have a small first-pass effect, and maintain an effective concentration in blood for a reasonable period of time. A microsomal preparation from the liver contains all CYP isozymes and other membrane-bound drug metabolizing enzymes which are responsible for the metabolism for the majority of drugs in humans. Metabolic stability in liver microsomes can determine half-life (T1/2) and intrinsic clearance (Clint). The determination of Clint may be useful to determine whether metabolism is the major elimination pathway when it is compared to total body clearance in vivo. For high metabolic stability in liver microsomes: […] Human, Sprague Dawley rat, and CD-1 mouse liver microsome samples were purchased from BD Gentest. An in vitro metabolic stability assay suitable for use in predicting first pass metabolism of the compounds useful in the methods of the invention is described in this example. […] 6 mM NADPH in 0.1 M K-phosphate buffer is prepared by dissolving 25.1 mg of NADPH tetrasodium salt in 5 mL of K-phosphate buffer. […] The plate is pre-incubated at 37° C. for 10 minutes. 15 μL of NADPH stock solution (6 mM) is added to the wells designated for Time 60 and timed. At 30 min, 15 min, and 5 min, 15 μL of NADPH stock solution (6 mM) is added to the wells. At the end of incubation, 135 μL of ACN containing IS is added to all the wells (60 min, 30 min, 15 min, 5 min and 0 min). Then 15 μL of NADPH stock solution (6 mM) is added to the wells designated as Time 0.

[2] = Hepatitis C virus, read-out: 1b replicon EC50, Tables 4, 5 and text of the rat PK section
[3] = read-out: 1b replicon EC50, Tables 4, 5 and the rat PK section
[4] = Hepatitis C virus, Huh-7, 48 h, Table 1, Huh7 HCV 1b replicon, luciferase reporter, 48 hours, read-out: 1b EC50

Structure (SMILES) | EC50 (HCV genotype 1b; [2]) [nM] | EC50 (HCV genotype 1b; [3]) [nM] | rat liver microsome (RLM), % parent remaining ([1]; after 15 min) [% parent remaining] | rat liver microsome (RLM), % parent remaining ([1]; after 30 min) [% parent remaining] | rat liver microsome (RLM), % parent remaining ([1]; after 60 min) [% parent remaining] | EC50 (HCV genotype 1b; [4]) [nM]
Cn1nc(C(=O)NC2CCN(CCN3CCCCC3)CC2)c2ccc(N3CCCCCC3)nc21 [EBP1047] | 500 to 2000 | 500 | 44 | 18 | 10 | 
CCN1CCC(NC(=O)c2nn(C)c3nc(N4CCCCCC4)ccc23)CC1 [EBP1595] | 500 to 2000 | 1000 | 67 | 46 | 8 | 
Cn1nc(C(=O)NC2CCN(CCN3CCCC3)CC2)c2ccc(N3CCCCCC3)nc21 [EBP1597] | 500 to 2000 | 900 | 57 | 24 | 15 | 
CC(C)N1CCC(NC(=O)c2nn(C)c3nc(N4CCCCCC4)ccc23)CC1 [EBP1604] |  | 2200 | 58 | 41 | 14 | 
Cn1nc(C(=O)NC2CCNCC2)c2ccc(N3CCCCCC3)nc21.O=C(O)C(F)(F)F.O=C(O)C(F)(F)F [compound 697] |  |  | 69 | 42 | 13 | 670
CCC(CC)Oc1ccc2c(C(=O)NC3CCNCC3)n[nH]c2n1 [compound 726] |  |  | 83 | 69 | 53 | 1200
Clc1ccc(Cn2nc(COCCCN3CCCCC3)c3ccc(N4CCCCCC4)nc32)cc1 [compound 749] |  |  |  |  |  | 2000
CCC(CC)Oc1ccc2c(COCC3CCCNC3)nn(Cc3ccc(Cl)cc3)c2n1.O=C(O)C(F)(F)F (stereo not shown) [compound 755] |  |  |  |  |  | 3200
O=C(NC1CCNCC1)c1nn(C(=O)C2CCCCC2)c2nc(N3CCCCCC3)ccc12.O=C(O)C(F)(F)F.O=C(O)C(F)(F)F.O=C(O)C(F)(F)F [compound 989] |  |  |  |  |  | 2600
Cn1nc(C(=O)NC2CCN(CCN3CCCCC3)CC2)c2ccc(N3CCCCCC3)nc21 [compound 1047] |  |  | 44 | 18 | 10 | 520
Cn1nc(C(=O)NC2CCN(CC3CCCCC3)CC2)c2ccc(N3CCCCCCC3)nc21 [compound 1062] |  |  |  |  |  | 356
Cn1nc(C(=O)NC2CCN(CC(F)F)CC2)c2ccc(N3CCCCCC3)nc21 [compound 1110] |  |  | 10 | 0.5 | 0.5 | 1800
Cn1nc(CCCN2CCCC2)c2ccc(N3CCCCCCC3)nc21 [compound 1171] |  |  | 1.2 | 0.5 | 0.3 | 1600
Cn1nc(CCCN2CCCCC2CO)c2ccc(N3CCCCCCC3)nc21 (stereo not shown) [compound 1456] |  |  | 3.9 | 0.4 | 0.2 | 1500
CCN1CCC(NC(=O)c2nn(C)c3nc(N4CCCCCC4)ccc23)CC1 [compound 1595] |  |  | 67 | 46 | 8 | 740
Cn1nc(C(=O)NC2CCN(CCN3CCCC3)CC2)c2ccc(N3CCCCCC3)nc21 [compound 1597] |  |  | 57 | 25 | 14 | 770
